Patent US20050232983A1, “Transdermal patch” (INDEVUS PHARMACEUTICALS, INC., priority 2004, published 2005)

Test: serum dehydroepiandrosterone sulfate after topical application of the composition
Assay type: in vivo
Details: blood sample of recipient after application to skin
Excerpt: Delivery of dehydroepiandrosterone to the recipient's blood stream can be confirmed by analysis of a blood sample taken from the recipient.

## C[C@]12CC[C@H](O)CC1=CC[C@@H]1[C@@H]2CC[C@]2(C)C(=O)CC[C@@H]12 [dehydroepiandrosterone]
  plateau of serum dehydroepiandrosterone sulfate relative to baseline: at least twice baseline levels
  time to increased serum levels of dehydroepiandrosterone sulfate: within twenty-four hours
